# Patent publication US20230241071A1, “COMBINATION TREATMENT OF LIVER DISORDERS” (Terns Pharmaceuticals, Inc., priority 2021, published 2023)
# “Also recorded” adds a separate entry of the source.
# What was measured:
# [1] = Single-ascending dose trial of Compound 1 in healthy participants: safety and plasma PK
# Description: SSAO inhibition was determined by measuring relative reductions in plasma H2O2 generation after addition of an exogenous substrate (benzylamine). […] Safety was assessed for 7 (±3) days after dosing.
# Plasma PK parameters were determined by non-compartmental analysis. […] Percent change in total amine oxidase activity was determined relative to the corresponding pre-dose (baseline) samples.
# SSAO [2] = target: T1, SSAO (Homo sapiens, UniProt Q16853); experiment: Plasma SSAO activity and methylamine, multiple doses of Compound 1; type: in vivo
# T1 construct: from tissue; host or cells: human plasma from dosed participants
# T1 sequence (Q16853 29-763 limits assumed): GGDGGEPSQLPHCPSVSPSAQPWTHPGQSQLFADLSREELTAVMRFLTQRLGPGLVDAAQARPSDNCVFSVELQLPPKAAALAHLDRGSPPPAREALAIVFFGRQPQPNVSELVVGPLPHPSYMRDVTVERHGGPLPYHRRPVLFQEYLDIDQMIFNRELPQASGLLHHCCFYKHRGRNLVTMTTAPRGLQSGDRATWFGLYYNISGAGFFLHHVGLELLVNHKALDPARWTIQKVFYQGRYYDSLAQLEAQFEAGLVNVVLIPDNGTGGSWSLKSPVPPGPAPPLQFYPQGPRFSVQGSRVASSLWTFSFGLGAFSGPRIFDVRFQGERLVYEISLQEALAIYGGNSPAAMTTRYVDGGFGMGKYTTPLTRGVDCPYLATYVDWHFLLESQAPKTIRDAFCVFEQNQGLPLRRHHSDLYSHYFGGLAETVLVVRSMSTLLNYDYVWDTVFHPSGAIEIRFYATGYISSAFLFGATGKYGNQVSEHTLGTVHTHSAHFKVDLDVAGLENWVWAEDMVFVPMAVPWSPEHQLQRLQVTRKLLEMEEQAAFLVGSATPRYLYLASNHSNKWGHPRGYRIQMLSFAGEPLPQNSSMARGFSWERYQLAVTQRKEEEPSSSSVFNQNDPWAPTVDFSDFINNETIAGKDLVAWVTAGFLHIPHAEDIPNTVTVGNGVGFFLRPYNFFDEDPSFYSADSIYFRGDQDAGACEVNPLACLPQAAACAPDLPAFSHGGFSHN
# Description: A multiple-ascending dose clinical trial of Compound 1 was performed.
# SSAO [3] = target: T1, SSAO; experiment: Plasma SSAO/amine oxidase activity and methylamine after a single dose of Compound 1; type: in vivo
# Description: Safety was assessed for 7 (±3) days after dosing.
# Plasma PK parameters were determined by non-compartmental analysis.
# SSAO-specific amine oxidase levels in plasma were determined using a kinetic-based assay essentially as described previously (Schilter et al). Endogenous monoamine oxidases A and B were inhibited by adding pargyline to plasma samples prior to measuring H2O2 generation levels in placebo and active recipients.
# [4] = all single-dose cohorts, 1-10 mg or placebo (n = 32)
# [5] = single dose 1 mg or placebo (n = 8)
# [6] = single dose 3 mg or placebo (n = 8)
# [7] = single dose 6 mg or placebo (n = 8)
# [8] = single dose 10 mg or placebo (n = 8)
smiles,measurement,setting,value
"COC1CCN(c2ncc(OC/C(=C/F)CN)cn2)CC1 [Compound 1, (E)-3-fluoro-2-(((2-(4-methoxypiperidin-1-yl)pyrimidin-5-yl)oxy)methyl)prop-2-en-1-amine]",Subject incidence of TEAEs considered possibly treatment-related,[1]; [4],1 (3.1)
same,Subject incidence of any TEAE,[1]; [4],5 (15.6)
same,TEAE frequency: constipation,[1]; [4],1 (3.1)
same,TEAE frequency: contact dermatitis,[1]; [4],2 (6.3)
same,TEAE frequency: dysgeusia,[1]; [4],1 (3.1)
same,TEAE frequency: headache,[1]; [4],1 (3.1)
same,TEAE frequency: sore throat,[1]; [4],1 (3.1)
same,TEAE frequency: upper respiratory tract infection,[1]; [4],1 (3.1)
same,Subject incidence of TEAEs considered possibly treatment-related,[1]; [5],0
same,Subject incidence of any TEAE,[1]; [5],0
same,TEAE frequency: constipation,[1]; [5],0
same,TEAE frequency: contact dermatitis,[1]; [5],0
same,TEAE frequency: dysgeusia,[1]; [5],0
same,TEAE frequency: headache,[1]; [5],0
same,TEAE frequency: sore throat,[1]; [5],0
same,TEAE frequency: upper respiratory tract infection,[1]; [5],0
same,Subject incidence of TEAEs considered possibly treatment-related,[1]; [6],0
same,Subject incidence of any TEAE,[1]; [6],0
same,TEAE frequency: constipation,[1]; [6],0
same,TEAE frequency: contact dermatitis,[1]; [6],0
same,TEAE frequency: dysgeusia,[1]; [6],0
same,TEAE frequency: headache,[1]; [6],0
same,TEAE frequency: sore throat,[1]; [6],0
same,TEAE frequency: upper respiratory tract infection,[1]; [6],0
same,Subject incidence of TEAEs considered possibly treatment-related,[1]; [7],0
same,Subject incidence of any TEAE,[1]; [7],2
same,TEAE frequency: constipation,[1]; [7],0
same,TEAE frequency: contact dermatitis,[1]; [7],2
same,TEAE frequency: dysgeusia,[1]; [7],0
same,TEAE frequency: headache,[1]; [7],0
same,TEAE frequency: sore throat,[1]; [7],1
same,TEAE frequency: upper respiratory tract infection,[1]; [7],0
same,Subject incidence of TEAEs considered possibly treatment-related,[1]; [8],1 (12.5)
same,Subject incidence of any TEAE,[1]; [8],3 (37.5)
same,TEAE frequency: constipation,[1]; [8],1 (12.5)
same,TEAE frequency: contact dermatitis,[1]; [8],0
same,TEAE frequency: dysgeusia,[1]; [8],1 (12.5)
same,TEAE frequency: headache,[1]; [8],1 (12.5)
same,TEAE frequency: sore throat,[1]; [8],0
same,TEAE frequency: upper respiratory tract infection,[1]; [8],1 (12.5)
same,"plasma PK exposure, dose proportionality","[1]; single dose, between 1 and 10 mg",greater than dose proportional
same,safety and tolerability,[1]; single oral dose 1 mg to 10 mg,No clinically relevant adverse events or laboratory abnormalities; also recorded: safe and well tolerated
same,suppression of plasma VAP-1/SSAO-specific amine oxidase activity,"SSAO [2]; 10 mg, healthy participants (Example 2)",> 90%
same,inhibition of plasma SSAO activity,"SSAO [2]; Day 1, all dose cohorts",Near complete inhibition
same,plasma methylamine levels,"SSAO [2]; first daily dose 1, 4, 10 mg",increased in a dose proportional manner
same,duration of inhibition of plasma SSAO amine oxidase activity after cessation of dosing,SSAO [2]; multiple QD doses,up to 2 weeks
same,inhibition of plasma SSAO activity,"SSAO [3]; 4 hours post-dose, all dose cohorts (1-10 mg)",Near complete inhibition
same,duration of suppression of plasma SSAO activity after a single dose,SSAO [3]; single dose 1-10 mg,up to 1 week
same,plasma methylamine (MMA),SSAO [3]; single dose 1-10 mg,Maximum plasma MMA levels increased; also recorded: Dose-dependent increases
